The test system of one data set is Mus musculus. Description: Induction of catalepsy in po dosed Kunming mouse measured after 60 secs. The format is organism-based. The following applies: in vivo, 1 min.
A short description of data set [1]: AUC (0 to infinity) in Sprague-Dawley rat at 10 mg/kg, po by LC-MS/MS analysis. The class given is ADME, organism-based. The arrangement: dose 10 mg/kg, route oral, time infinity. The following applies: in vivo.
Data set [2] can be described thus: Oral bioavailability in Sprague-Dawley rat at 10 mg/kg by LC-MS/MS analysis. The class given is ADME, organism-based. The note with it: in vivo.
The next data set has as its system Rattus norvegicus. Description: Cognitive enhancing effect in Sprague-Dawley rat assessed as increase in novelty discrimination index in retention trial at 0.3 mg/kg, po administered 1 hr prior to acquisition trial measured 24 hrs post acquisition trial for 5 mins by novel object recognition test. The format is functional, organism-based.
Data set [3] can be described thus: Displacement of [3H]-DTG from sigma2 receptor in guinea pig brain membranes after 120 mins by liquid scintillation counting. The class given is cell membranes, Cavia porcellus, Membrane. A general note: Loss of bound radioactivity is the signal in a displacement assay; it reports binding, not function.
The target of data set [4] is 5-hydroxytryptamine receptor 1A (Homo sapiens, UniProt P08908).
5-hydroxytryptamine receptor 1A, sequence (P08908 whole entry): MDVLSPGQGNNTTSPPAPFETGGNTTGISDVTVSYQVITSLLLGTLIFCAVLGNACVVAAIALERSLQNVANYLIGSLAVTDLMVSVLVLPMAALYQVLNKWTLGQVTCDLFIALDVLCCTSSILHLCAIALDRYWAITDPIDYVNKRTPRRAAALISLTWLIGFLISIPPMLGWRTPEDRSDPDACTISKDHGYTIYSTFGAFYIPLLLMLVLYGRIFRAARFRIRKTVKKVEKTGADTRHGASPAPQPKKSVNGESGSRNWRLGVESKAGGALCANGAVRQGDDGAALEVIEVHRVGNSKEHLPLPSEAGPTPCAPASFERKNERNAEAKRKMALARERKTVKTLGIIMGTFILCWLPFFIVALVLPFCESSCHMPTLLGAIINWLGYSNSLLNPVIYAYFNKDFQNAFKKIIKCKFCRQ
Data set [5] addresses T1, Adrenergic receptor alpha-1 (Rattus norvegicus, UniProt P15823+P23944+P43140).
T1 sequence (P15823 whole entry): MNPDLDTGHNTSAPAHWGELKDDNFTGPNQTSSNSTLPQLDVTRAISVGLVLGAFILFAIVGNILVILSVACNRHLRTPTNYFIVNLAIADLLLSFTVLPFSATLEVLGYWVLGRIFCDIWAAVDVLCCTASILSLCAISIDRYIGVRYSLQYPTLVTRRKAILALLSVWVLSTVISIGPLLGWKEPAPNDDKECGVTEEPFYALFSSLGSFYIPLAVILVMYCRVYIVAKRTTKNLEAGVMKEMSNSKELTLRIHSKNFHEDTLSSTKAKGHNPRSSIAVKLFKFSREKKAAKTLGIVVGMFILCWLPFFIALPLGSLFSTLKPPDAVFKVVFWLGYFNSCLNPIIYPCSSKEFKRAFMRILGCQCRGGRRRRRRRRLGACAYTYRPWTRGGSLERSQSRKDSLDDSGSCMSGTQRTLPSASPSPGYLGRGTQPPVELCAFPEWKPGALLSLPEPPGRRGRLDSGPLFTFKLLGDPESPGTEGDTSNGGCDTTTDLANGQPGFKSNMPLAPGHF
T1 sequence (P23944 whole entry): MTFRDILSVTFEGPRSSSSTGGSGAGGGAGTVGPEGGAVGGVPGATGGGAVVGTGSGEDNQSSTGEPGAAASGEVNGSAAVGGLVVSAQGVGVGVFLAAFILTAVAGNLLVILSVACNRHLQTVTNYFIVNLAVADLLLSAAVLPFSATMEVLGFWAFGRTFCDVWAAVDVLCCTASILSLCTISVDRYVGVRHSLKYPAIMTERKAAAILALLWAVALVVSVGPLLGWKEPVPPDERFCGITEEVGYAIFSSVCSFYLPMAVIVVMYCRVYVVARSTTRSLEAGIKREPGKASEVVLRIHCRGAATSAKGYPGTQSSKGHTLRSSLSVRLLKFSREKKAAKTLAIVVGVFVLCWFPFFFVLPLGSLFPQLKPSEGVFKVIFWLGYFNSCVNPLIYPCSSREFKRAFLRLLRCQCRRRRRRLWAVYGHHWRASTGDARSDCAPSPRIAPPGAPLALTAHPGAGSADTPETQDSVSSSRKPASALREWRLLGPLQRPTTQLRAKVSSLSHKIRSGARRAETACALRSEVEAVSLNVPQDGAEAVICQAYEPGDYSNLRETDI
T1 sequence (P43140 whole entry): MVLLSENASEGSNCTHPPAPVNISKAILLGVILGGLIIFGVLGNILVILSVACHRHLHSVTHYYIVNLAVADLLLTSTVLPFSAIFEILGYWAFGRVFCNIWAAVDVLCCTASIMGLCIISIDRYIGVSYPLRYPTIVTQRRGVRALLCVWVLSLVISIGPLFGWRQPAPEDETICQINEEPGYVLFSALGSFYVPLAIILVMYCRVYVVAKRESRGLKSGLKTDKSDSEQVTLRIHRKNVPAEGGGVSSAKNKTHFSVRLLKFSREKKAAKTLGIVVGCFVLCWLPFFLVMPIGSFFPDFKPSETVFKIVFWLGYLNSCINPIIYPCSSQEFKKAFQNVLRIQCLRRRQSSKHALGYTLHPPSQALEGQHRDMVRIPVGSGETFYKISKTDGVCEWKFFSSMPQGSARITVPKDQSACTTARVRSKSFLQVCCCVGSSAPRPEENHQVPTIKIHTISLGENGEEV
Description: Displacement of [3H]-prazosin from alpha-1 adrenergic receptor in rat cerebral cortex homogenates incubated for 60 mins by liquid scintillation counting

pIC50, pKi: −log10 of the molar value. The source made the active and inactive calls. No cut-off for these calls is given here.

The term ED50 denotes the dose at which the effect has come halfway, by size or by number of responders. A lower ED50 goes with greater potency. Usually AUC(0-inf) stands for total exposure, with the tail of the curve extrapolated. Higher therefore signals more exposure. Usually bioavailability stands for the share of a dose that reaches the circulation, judged against a reference dose that is usually intravenous. A higher bioavailability goes with good availability. As usually defined, the pKi is −log10 of the Ki, conventionally taken in molar units. High values mean a small Ki, low ones a large Ki. By pIC50 is commonly meant the negative decadic logarithm of the IC50, by convention in mol/L. Low readings indicate a high IC50, high ones a low IC50. Usually Ki stands for the dissociation constant of the complex between target and ligand, obtained from inhibition or displacement. A high value points to a looser hold on the target. The compound `O=C(CCCCN1CCC(c2noc3cc(F)ccc23)CC1)c1cc2c3c(c1)CCN3C(=O)CC2` displayed an ED50 with Mus musculus of 78.62 mg/kg. The compound further returned an AUC(0-inf) in data set [1] of 18500 ng·h/mL. For the same compound, the bioavailability in data set [2] came to 58.8%. In addition, the result in the data set on Rattus norvegicus was Active. Also, the pKi in data set [3] was below 6.00. This compound also had a pIC50 in data set [4] of 6.23. In data set [5], this compound came in with a Ki of 431 nM.

For the origin of these results see ChEMBL document CHEMBL4270672, “Synthesis and Biological Evaluation of Fused Tricyclic Heterocycle Piperazine (Piperidine) Derivatives As Potential Multireceptor Atypical Antipsychotics” (J Med Chem, 2018).
